# According to US20100004738A1, “DRUG DELIVERY COATING FOR USE WITH A MEDICAL DEVICE AND METHODS OF TREATING VASCULAR INJURY” (ATRIUM MEDICAL CORPORATION, priority 2005, published 2010):
# Assays:
# Assay type in all cases: in vivo
# [1] = tested on: rabbit illiac arteries; assay: Example 2: drug-loaded Atrium Flyer stents vs Taxus Express in rabbit iliac arteries for 28 days, histomorphic and histopathologic analyses; details: for EEL Area / IEL Area / Intimal Area / Lumen Area / Stenosis: mean ± SD
# Protocol: Histomorphic and histopathologic analyses are then performed.
# [2] = tested on: rabbit iliacs; assay: Calcineurin inhibiting compounds after vascular injury in rabbit iliacs (inventors' earlier studies); details: local delivery, also rat, by reducing giant cell and eosinophil formation
# Source text: Studies in rabbit iliacs following vascular injury conducted by and/or on behalf of the inventors show the benefits of using calcineurin inhibiting compounds like Tacrolimus, Cyclosporin A (CsA) and Cyclosporin derivatives, in small animals like the rat, and in rabbits. […] Such vascular injury and sirolimus medicated inflammation can be characterized as having excessive giant cell formation and esinophil propagation.
# [3] = tested on: rabbit's iliac vessel; assay: Rapamycin drug eluting stents in rabbit iliac vessel, inflammation (inventors' earlier studies)
# Source text: The inventors postulate, based on these animal study results, that one consequence of these types of drugs is retarded endothelial cell coverage, and that current drug eluting stents promote more chronic inflammation than would normally be present with a non drug eluting bare metal stent.
# [4] = tested on: rabbit illiac arteries; assay: Example 1: stents implanted in rabbit iliac arteries for 28 days, histomorphic and histopathologic analyses; set-up: Injury Score / Fibrin Score / Inflamm. Score: scale not given here; details: for % Endothel. / % struts with Fibrin / % struts with RBC / EEL Area / Fibrin Score / IEL Area / Inflamm. Score / Injury Score / Intimal Area / Intimal Thick. / Lumen Area / Medial Area / Medial Thick. / Stenosis / Struts with Giant cells: Atrium Flyer ALPHA-3 coated stent, mean ± SD
# Protocol: The Atrium Flyer is compared with bare metal stents, the Atrium Flyer coated with ALPHA-3 without drugs, and Cypher™ drug eluting stent. Histomorphic and histopathologic analyses are then performed.
# [5] = Atrium Flyer ALPHA-3 coated stent loaded with high dose of the drug, 28 days
# [6] = Atrium Flyer ALPHA-3 coated stent loaded with low dose of the drug, 28 days
# [7] = Atrium Flyer ALPHA-3 coated stent loaded with mid-dose of the drug, 28 days
# [8] = sirolimus = Atrium drug coated stents, Cypher = commercial stent
compound,measurement,setting,value
"O=C1CCc2cc(OCCCCc3nnnn3C3CCCCC3)ccc2N1 [Cilostazol, cilostazol]",EEL Area,[1]; [5],5.73 ± 0.31 mm^2
same,IEL Area,[1]; [5],5.47 ± 0.26 mm^2
same,Intimal Area,[1]; [5],1.245 ± 0.303 mm^2
same,Lumen Area,[1]; [5],4.25 ± 0.42 mm^2
same,Stenosis,[1]; [5],22.7 ± 5.9%
same,EEL Area,[1]; [6],5.80 ± 0.22 mm^2
same,IEL Area,[1]; [6],5.51 ± 0.21 mm^2
same,Intimal Area,[1]; [6],1.246 ± 0.115 mm^2
same,Lumen Area,[1]; [6],4.26 ± 0.28 mm^2
same,Stenosis,[1]; [6],22.7 ± 2.4%
same,EEL Area,[1]; [7],5.70 ± 0.16 mm^2
same,IEL Area,[1]; [7],5.43 ± 0.14 mm^2
same,Intimal Area,[1]; [7],1.257 ± 0.321 mm^2
same,Lumen Area,[1]; [7],4.25 ± 0.39 mm^2
same,Stenosis,[1]; [7],23.0 ± 5.7%
same,reduction in neointima (in words),"[1]; Atrium Flyer coated stents, 28 days",No reduction in neointima
C=CC[C@@H]1/C=C(\C)C[C@H](C)C[C@H](OC)[C@H]2O[C@@](O)(C(=O)C(=O)N3CCCC[C@H]3C(=O)O[C@H](/C(C)=C/[C@@H]3CC[C@@H](O)[C@H](OC)C3)[C@H](C)[C@@H](O)CC1=O)[C@H](C)C[C@@H]2OC [Tacrolimus],inflammation following vascular injury (in words),[2],effectively reduce inflammation following vascular injury
"CC(=O)O[C@H]1C(=O)[C@@]2(C)[C@H]([C@H](OC(=O)c3ccccc3)[C@]3(O)C[C@H](OC(=O)[C@H](O)[C@@H](NC(=O)c4ccccc4)c4ccccc4)C(C)=C1C3(C)C)[C@]1(OC(C)=O)CO[C@@H]1C[C@@H]2O [Paclitaxel, paclitaxel]",EEL Area,[1]; [5],5.63 ± 0.24 mm^2
same,IEL Area,[1]; [5],5.40 ± 0.24 mm^2
same,Intimal Area,[1]; [5],1.048 ± 0.084 mm^2
same,Lumen Area,[1]; [5],4.35 ± 0.22 mm^2
same,Stenosis,[1]; [5],19.4 ± 1.5%
same,EEL Area,[1]; [6],5.88 ± 0.41 mm^2
same,IEL Area,[1]; [6],5.58 ± 0.36 mm^2
same,Intimal Area,[1]; [6],1.234 ± 0.197 mm^2
same,Lumen Area,[1]; [6],4.35 ± 0.40 mm^2
same,Stenosis,[1]; [6],22.2 ± 4.0%
same,EEL Area,[1]; [7],5.56 ± 0.26 mm^2
same,IEL Area,[1]; [7],5.31 ± 0.25 mm^2
same,Intimal Area,[1]; [7],1.152 ± 0.243 mm^2
same,Lumen Area,[1]; [7],4.16 ± 0.27 mm^2
same,Stenosis,[1]; [7],21.8 ± 5.0%
same,in-stent neointimal growth (in words),"[1]; Atrium high dose stents, 28 days, compared with Taxus Express",suppresses in-stent neointimal growth
same,arterial healing (in words),"[1]; rabbit, in vivo",(greater) arterial healing
Cyclosporin A,inflammation following vascular injury (in words),[2],effectively reduce inflammation following vascular injury
"CO[C@H]1C[C@@H]2CC[C@@H](C)[C@@](O)(O2)C(=O)C(=O)N2CCCC[C@H]2C(=O)O[C@H]([C@H](C)C[C@@H]2CC[C@@H](O)[C@H](OC)C2)CC(=O)[C@H](C)/C=C(\C)[C@@H](O)[C@@H](OC)C(=O)[C@H](C)C[C@H](C)/C=C/C=C/C=C/1C [Sirolimus, Sirolimus (rapamycin)]",inflammatory response around the drug eluting stent (in words),"[3]; Rapamycin drug eluting stent, rabbit iliacs",presence of numerous giant cells and esinophils
same,amount of inflammation induced by overlapping drug coating,[3]; two separate rapamycin drug eluting stents overlapping in rabbit iliac vessel,increases nearly two fold
same,EEL Area,[1]; [5],6.13 ± 0.15 mm^2
same,IEL Area,[1]; [5],5.80 ± 0.16 mm^2
same,Intimal Area,[1]; [5],1.027 ± 0.036 mm^2
same,Lumen Area,[1]; [5],4.78 ± 0.20 mm^2
same,Stenosis,[1]; [5],17.7 ± 1.1%
same,arterial healing (in words),"[1]; rabbit, in vivo",(greater) arterial healing
same,% Struts with Giant cells,"[1]; rabbit, in vivo, 28 days",21.9 ± 7.6%
same,% struts with RBC,"[1]; rabbit, in vivo, 28 days",1.2 ± 2.4%
same,Endothelium (%),"[1]; rabbit, in vivo, 28 days",97.2 ± 5.0%
same,Fibrin Score,"[1]; rabbit, in vivo, 28 days",0.41 ± 0.32
same,Inflam Score,"[1]; rabbit, in vivo, 28 days",1.00 ± 0.72
same,tolerability / adverse reaction,[4]; Atrium Flyer ALPHA-3 coated stent loaded with low or high doses of sirolimus,"well tolerated, producing no adverse reaction"
same,% Endothel.,"[4]; high dose sirolimus, n = 10",97.90 ± 4.58%
same,% struts with Fibrin,"[4]; high dose sirolimus, n = 10",11.99 ± 6.81%
same,% struts with RBC,"[4]; high dose sirolimus, n = 10",2.86 ± 3.23%
same,EEL Area,"[4]; high dose sirolimus, n = 10",6.24 ± 0.25 mm^2
same,Fibrin Score,"[4]; high dose sirolimus, n = 10",0.11 ± 0.09
same,IEL Area,"[4]; high dose sirolimus, n = 10",5.90 ± 0.25 mm^2
same,Inflamm. Score,"[4]; high dose sirolimus, n = 10",0.03 ± 0.10
same,Injury Score,"[4]; high dose sirolimus, n = 10",0.04 ± 0.06
same,Intimal Area,"[4]; high dose sirolimus, n = 10",0.99 ± 0.10 mm^2
same,Intimal Thick.,"[4]; high dose sirolimus, n = 10",0.08 ± 0.03 mm
same,Lumen Area,"[4]; high dose sirolimus, n = 10",4.94 ± 0.27 mm^2
same,Medial Area,"[4]; high dose sirolimus, n = 10",0.34 ± 0.05 mm^2
same,Medial Thick.,"[4]; high dose sirolimus, n = 10",0.06 ± 0.02 mm
same,Stenosis,"[4]; high dose sirolimus, n = 10",16.73 ± 1.61%
same,Struts with Giant cells,"[4]; high dose sirolimus, n = 10, in % (unit assumed)",2.80 ± 0.63
same,% Endothel.,"[4]; low dose sirolimus, n = 8",97.62 ± 2.67%
same,% struts with Fibrin,"[4]; low dose sirolimus, n = 8",34.12 ± 20.62%
same,% struts with RBC,"[4]; low dose sirolimus, n = 8",3.46 ± 3.07%
same,EEL Area,"[4]; low dose sirolimus, n = 8",5.99 ± 0.44 mm^2
same,Fibrin Score,"[4]; low dose sirolimus, n = 8",0.20 ± 0.35
same,IEL Area,"[4]; low dose sirolimus, n = 8",5.63 ± 0.38 mm^2
same,Inflamm. Score,"[4]; low dose sirolimus, n = 8",0.53 ± 0.41
same,Injury Score,"[4]; low dose sirolimus, n = 8",0.06 ± 0.07
same,Intimal Area,"[4]; low dose sirolimus, n = 8",0.97 ± 0.11 mm^2
same,Intimal Thick.,"[4]; low dose sirolimus, n = 8",0.07 ± 0.01 mm
same,Lumen Area,"[4]; low dose sirolimus, n = 8",4.74 ± 0.32 mm^2
same,Medial Area,"[4]; low dose sirolimus, n = 8",0.36 ± 0.09 mm^2
same,Medial Thick.,"[4]; low dose sirolimus, n = 8",0.05 ± 0.01 mm
same,Stenosis,"[4]; low dose sirolimus, n = 8",17.15 ± 1.84%
same,Struts with Giant cells,"[4]; low dose sirolimus, n = 8, in % (unit assumed)",2.50 ± 1.41
same,endothelialization (in words),[4]; [8],well endothelialized
same,healing (in words),[4]; [8],delayed healing
